Experiment in all cases: NCI tumour cell line growth inhibition, 48 h
For assay [1], the system named is CCRF-CEM leukemia.
The test system of assay [2] is COLO 205 colon.
Assay [3] deals with DU-145 prostate.
In assay [4] the test system is HOP-62 NSCLC.
Assay [5] deals with NCI-H226 lung.
In assay [6] the test system is NCI-H23 lung.
Assay [7] deals with NCI-H460 lung.
Assay [8] concerns A498 renal.
Assay [9] deals with HL-60(TB) leukemia.
Assay [10] deals with RXF 393 renal.

Where “and” joins values, the source holds several entries; their conditions need not be identical. Equal values may be shown once.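 Five concentrations, 48 hours, 96-well plates. GI50 is the concentration that inhibits growth by half. TGI: concentration producing complete growth inhibition.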

Regarding `CN(C)CCCn1c2c(c3ccc([N+](=O)[O-])cc3c1=O)C(=O)c1ccccc1-2`, the GI50 in assay [1] is 3.85 µM; in assay [2], 23.9 µM; in [3], 5.61 µM; in assay [4] it was 5.67 µM; in assay [5] it was 6.82 µM; in [6], 4.95 µM. In [7], the GI50 was 2.69 µM. In addition, the TGI in assay [1] came to 59 µM; in assay [2], 87.5 µM; in assay [3], 29.8 µM; in assay [4], 20.8 µM; in [5] it was 24 µM; in assay [6], 24.2 µM. This compound also gave a TGI in [7] of 19.4 µM.
On to `Cn1c(N)cc(=O)nc1N`, for which the TGI in assay [8], in [1], in assay [2], in assay [3], in [9] and in assay [4] was more than 100 µM each time. In addition, the TGI in [5], in assay [6] and in assay [7] was more than 100 µM each time.
As to `COC(=O)[C@@H](C)C[C@H](Cc1ccccc1)NC(=O)c1cccc([C@@H](C[C@H](C(C)C)N(C)C(=O)[C@@H](NC(=O)[C@H]2CCCCN2C)C(C)C)OC(C)=O)n1`, the GI50 is 0.00203 µM in assay [1]; less than 0.00167 µM in [3]; less than 0.00167 µM in [9]; 0.00367 µM in assay [4]; 0.0034 µM in assay [6]; less than 0.00167 µM in assay [7]. Moreover, the GI50 in [10] is less than 0.00167 µM. Also, the TGI is more than 16.7 µM in assay [1]; 0.00181 µM in assay [9]; more than 16.7 µM in [4]; more than 16.7 µM in assay [6]; more than 16.7 µM in [7]; more than 16.7 µM in [10].
Take `Cc1ccc(SCN2CCCCC2)cc1` (tested in a mixture with another compound): the TGI worked out at 14.7 µM in assay [8]; 6.59 µM in assay [1]; 16 µM in assay [2]; 28.1 µM in [3]; 4.98 µM in assay [9]; 37.7 µM in [4]. The figures for the TGI in assay [5], in [6] and in [10] were 36.7 µM, 22.9 µM and 22.3 µM, respectively.
`CC(C)(O)C1CC(=O)C(C)(C2C(O)CC3(C)C4CC=C5C(CCC(O)C5(C)C)C4(C)C(=O)CC23C)O1` (stereo not drawn): the TGI in assay [8], in assay [2], in [3], in assay [4], in [5] and in assay [6] was more than 100 µM each time. Besides, the TGI in assay [7] and in assay [10] was more than 100 µM throughout.
For `O=C1[C@@H]2C3C=CC([C@H]4C(=O)N(CO)C(=O)[C@@H]34)[C@@H]2C(=O)N1CO`, the TGI in assay [8] was more than 100 µM; in assay [1], 59.3 µM; in [2], more than 77.8 µM; in assay [9], 49.3 µM; in [4], more than 100 µM; in assay [5], more than 100 µM. The TGI in assay [6] is more than 100 µM; in assay [7], more than 55.1 µM; in [10] it was more than 77.8 µM.
Consider `Nc1cc2[nH]c(=O)c3cc(Cl)ccc3c2cc1Cl`, for which the TGI in [1] was more than 100 µM; in assay [2], more than 100 µM; in assay [3], 39.1 µM; in assay [9], more than 100 µM; in assay [4], 63.1 µM; in assay [5], 28.1 µM. For the same compound, the TGI amounted to 72.5 µM in assay [6] and 18.8 µM in assay [7].
Take `O=C(CN1C(=O)c2ccccc2C1=O)NC1(C(=O)O)CCCC1`: the TGI in assay [8], in [1], in assay [2], in [3], in assay [9] and in assay [4] was more than 100 µM in each case. Further, the TGI in assay [5], in assay [6] and in assay [10] was more than 100 µM each time.
As for `COc1cccc2c1C(=N)c1c(O)c3c(c(O)c1C2=O)C[C@@](O)(C(C)=O)C[C@@H]3OC1CC(N)C(O)C(C)O1` (stereo partly drawn), the TGI is 3.06 µM and 6.52 µM and 1.88 µM in assay [8]; 0.473 µM and 0.975 µM in [1]; 2.29 µM and 4.36 µM and 2.42 µM in assay [2]; 0.0618 µM in assay [3]; 0.287 µM and 0.192 µM in assay [9]; 0.607 µM and 1.62 µM and 1.2 µM in assay [6]. Moreover, the TGI is 2.01 µM and 2.11 µM and 0.239 µM in assay [7]; 2.95 µM and 3.8 µM and 0.872 µM in assay [10]. The GI50 in [3] is 0.018 µM.
In the case of `CCCCCCCCCCCCOC1C(C(COC2OC(C(O)CO)C3OC(C)(C)OC23)OC(=O)Nc2ccc([N+](=O)[O-])cc2)OC2OC(C)(C)OC21` (stereo not drawn), the GI50 in [8] was 2.63 µM; in assay [2], 7.28 µM; in assay [3] it was 2.52 µM; in assay [9], 3.36 µM; in assay [4] it was 1.95 µM; in assay [5], 2.98 µM. In addition, the GI50 in assay [6] was 12.6 µM; in [7], 3.74 µM; in assay [10], 2.71 µM. Also, the TGI in assay [8] was 6.09 µM; in assay [2], 23.9 µM; in assay [3], 7.17 µM; in [9], 8.92 µM; in assay [4] it was 3.8 µM; in [5], 11.2 µM. Moreover, the TGI was determined as 28.2 µM in [6], 13.5 µM in [7] and 6.57 µM in assay [10].
For `Cn1c([N+](=O)[O-])cnc1/C=C1\Oc2ccc(Cl)cc2C1=O`, the GI50 was 1.89 µM in [8]; 0.199 µM in assay [1]; 0.8 µM in assay [2]; 0.402 µM in assay [3]; 0.511 µM in [9]; 1.6 µM in assay [4]. Moreover, the results for the GI50 in assay [5], in assay [6] and in assay [7] were 1.64 µM, 0.652 µM and 0.352 µM, respectively. Moreover, the TGI in assay [8] is 5.07 µM; in [1] it was 0.823 µM; in [2] it was 3.15 µM; in assay [3], 1.32 µM; in assay [9], 4.67 µM; in assay [4], 4.78 µM. For the same compound, the TGI turned out to be 4.64 µM in assay [5], 4.47 µM in [6] and 2.95 µM in assay [7].
As for `CCN(CC)CC(C(=O)Nc1c(C)cccc1C)/C(C)=N/NC(N)=S` (stereo not drawn), the TGI in assay [8], in [1], in [2], in [9], in assay [4] and in assay [5] was more than 100 µM in each case. For the same compound, the TGI in assay [6], in [7] and in assay [10] was more than 100 µM in each case.

For the origin of these results see PubChem BioAssay (NCI).
